Experimental findings from patent publication KR20220113942A, “제조성 및 용출성이 우수한 소형 정제” (스미토모 파마 가부시키가이샤, priority 2019, dated 2021) are described below.

The series can be described thus: Test Example 2: evaluation of tabletability (capping on tableting). The settings on record: conclusion in words from Table 22. It is filed as physicochemical.

On to `C[C@@H]1N=C(N)NC(N(C)C)=N1` [이메글리민, (6R)-N2,N2,6-트리메틸-3,6-디히드로-1,3,5-트리아진-2,4-디아민, 염산염], for which the compression moldability entry is on record as “압축 성형성이 나빠서”. Moreover, the “tendency to tableting failure (capping) as drug content ratio in the tablet rises” value (high drug content ratio in the tablet) is given as “타정 장해(캐핑)가 발생하기 쉬움”.
